{
  "source": "patent US6759546B1",
  "about": "“3,5-di-iso-propyl-heptatrienoic acid derivatives having serum glucose reducing activity” (Allergan, Inc., priority 2003, dated 2004)",
  "key": {"[1]": {"system": "female diabetic db/db mice", "experiment": "serum glucose, triglyceride and thyroxine levels in db/db mice", "format": "in vivo", "conditions": "for Glucose Day 0 / Triglycerides Day 0 / Glucose Day 3, 3 h / Triglycerides Day 3, 3 h / Glucose Day 6, 3 h / T4 Day 7: 5 mg/kg oral gavage daily; for Glucose Day 0 / Triglycerides Day 0: day 0 (pre-treatment)", "description": "An assay described below tests the effect of compounds of the invention on serum glucose, tryglyceride and thyroxine levels in female 9-10 weeks old db/db mice.\nBlood samples (70 μl) were taken by orbital bleeding at 11:00 AM on day 0 (pre-treatment), day 3, and day 6. On day 7, a blood sample (700 μl) was taken at 11:00 AM and the animals were sacrificed. Glucose, triglyceride and thyroxine (T4) levels were determined on a Boehringer Manheim Hatachi Clinical Chemistry Analyzer using standard protocols provided by the manufacturer and reagents that were supplied in commercially available kits (glucose and T4: Boehringer Manheim; triglycerides: Roche Diagnostics). Seven animals were treated in each group."}, "RXRβ": {"target": "T1, RXRβ (UniProt P28704)", "T1 sequence (P28704 1-520)": "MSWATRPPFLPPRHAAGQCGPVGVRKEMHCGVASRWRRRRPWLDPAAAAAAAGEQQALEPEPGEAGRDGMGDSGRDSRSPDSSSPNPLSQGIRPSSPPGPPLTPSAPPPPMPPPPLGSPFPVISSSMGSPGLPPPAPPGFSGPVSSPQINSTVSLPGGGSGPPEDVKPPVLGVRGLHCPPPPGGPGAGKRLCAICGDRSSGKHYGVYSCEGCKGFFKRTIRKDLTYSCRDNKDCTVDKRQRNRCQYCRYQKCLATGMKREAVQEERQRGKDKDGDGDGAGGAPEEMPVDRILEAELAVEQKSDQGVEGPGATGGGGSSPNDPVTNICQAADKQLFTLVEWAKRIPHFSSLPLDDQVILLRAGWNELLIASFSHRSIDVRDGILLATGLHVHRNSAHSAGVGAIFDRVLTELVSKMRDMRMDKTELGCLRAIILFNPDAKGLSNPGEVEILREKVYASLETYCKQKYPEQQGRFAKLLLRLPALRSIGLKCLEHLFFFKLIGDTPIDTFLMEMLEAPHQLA", "experiment": "holoreceptor transactivation assay"}, "RXRα": {"target": "T2, RXRα (Homo sapiens, UniProt P19793)", "T2 construct": "expressed in transfected cells", "T2 sequence (P19793 1-462)": "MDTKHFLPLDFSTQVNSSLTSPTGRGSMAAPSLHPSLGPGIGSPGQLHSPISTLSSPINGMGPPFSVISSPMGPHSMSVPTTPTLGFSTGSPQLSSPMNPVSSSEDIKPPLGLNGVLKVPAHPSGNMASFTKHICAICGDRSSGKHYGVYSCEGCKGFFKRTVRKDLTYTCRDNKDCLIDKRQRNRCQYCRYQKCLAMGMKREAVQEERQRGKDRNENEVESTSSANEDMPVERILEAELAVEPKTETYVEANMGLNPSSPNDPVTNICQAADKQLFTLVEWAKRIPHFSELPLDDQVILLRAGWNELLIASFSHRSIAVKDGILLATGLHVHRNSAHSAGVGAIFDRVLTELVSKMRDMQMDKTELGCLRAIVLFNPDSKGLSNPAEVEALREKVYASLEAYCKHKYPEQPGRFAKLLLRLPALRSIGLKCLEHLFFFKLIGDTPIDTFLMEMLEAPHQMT", "experiment": "holoreceptor transactivation assay", "format": "cell-based", "conditions": "percentage compared to the standard compound"}},
  "data": [
    {"smiles": "CC(/C=C/[C@@H]1C[C@]1(C)c1ccc2c(c1)C(C)(C)CCC2(C)C)=C\\C(=O)O", "note": "[Standard compound]", "values": [
      {"measurement": "Glucose Day 0", "setting": "[1]; Table 2", "result": 378, "unit": "mg/dL"},
      {"measurement": "Triglycerides Day 0", "setting": "[1]; Table 2", "result": 171, "unit": "mg/dL"},
      {"measurement": "Glucose Day 3, 3 h", "setting": "[1]; Table 2", "result": 308, "unit": "mg/dL"},
      {"measurement": "Triglycerides Day 3, 3 h", "setting": "[1]; Table 2", "result": 472, "unit": "mg/dL"},
      {"measurement": "Glucose Day 6, 3 h", "setting": "[1]; Table 2", "result": 333, "unit": "mg/dL"},
      {"measurement": "T4 Day 7", "setting": "[1]; Table 2", "result": 1.2, "unit": "µg/dL"},
      {"measurement": "Glucose Day 0", "setting": "[1]; Table 3", "result": 409, "unit": "mg/dL"},
      {"measurement": "Triglycerides Day 0", "setting": "[1]; Table 3", "result": 193, "unit": "mg/dL"},
      {"measurement": "Glucose Day 3, 3 h", "setting": "[1]; Table 3", "result": 369, "unit": "mg/dL"},
      {"measurement": "Triglycerides Day 3, 3 h", "setting": "[1]; Table 3", "result": 50, "unit": "mg/dL"},
      {"measurement": "Glucose Day 6, 3 h", "setting": "[1]; Table 3", "result": 378, "unit": "mg/dL"},
      {"measurement": "T4 Day 7", "setting": "[1]; Table 3", "result": 1.4, "unit": "µg/dL"},
      {"measurement": "effect on serum thyroxine levels", "setting": "[1]; diabetic mammals, summary in words", "result": "reducing serum thyroxine levels"},
      {"measurement": "RXR Trans. efficacy β", "setting": "RXRβ", "result": "0.4 (100) 1%"},
      {"measurement": "RXR Trans. efficacy α", "setting": "RXRα", "result": 100, "unit": "%"}
    ]}
  ]
}
